A short description of the data set: Solubility of the poison ivy antigen in water and ethanol. It counts as physicochemical. From the text: The present inventors discovered the phenomenon of tissue deposition by precipitation (TDBP) with an allergy vaccine that was a catechol and naturally had the requisite solubility properties to achieve TDBP. In particular, the poison ivy antigen that induced tolerance when precipitated in muscle by precipitation is a catechol which is naturally insoluble in water and for which effective doses are soluble in small volumes of the pharmaceutically acceptable water-miscible solvent ethanol. The inventors termed the phenomenon vaccine delivery by precipitation (VDBP) which is a preferred embodiment of TDBP and they interpreted its probable mechanism of action.
FIG. 1 is a graphic representation of the function of the adaptive immune system in the skin, reproduced from Teunissen on intradermal immunization. It is a cartoon of how immunomodulation takes place. […] These recognize and take up molecules or particles of an antigen which they then present to naive T lymphocytes which then mature along one of what are shown here as seven different pathways. The location is the cortex of a lymph node. Dendritic cells (DC's) from either homeostatic or inflamed tissue present antigenic epitopes in their MHC Class Il molecular grooves, to naive T lymphocytes (Tn). […]

With urushiol [poison ivy antigen], the solubility in ethanol entry (effective doses in small volumes of ethanol) is reported as “soluble”. Moreover, the solubility in water result (water) is reported as “insoluble”.

The record behind these values is patent publication US20250333437A1, “USE OF NON-INFORMAT[…] CHAINS TO MODIFY THE […] PEPTIDES” (priority 2022, published 2025).
